# Test results published in article PMC12310023 (PLOS Neglected Tropical Diseases, 2025).
# Where “and” joins values, the source holds several entries; their conditions need not be identical. Identical values can stand only once.
# Columns and labels:
# [1] = Mouse plasma, brain and GI exposure PK, Balb/c, 30 mg/kg PO; conditions: Brains, 0.5 hr, individual samples
# [2] = tested on: NLuc-expressing C. parvum; assay: NLuc C. parvum IFNγ-KO mouse infection model, oocyst shedding; assay type: in vivo
# [3] = tested on: C. parvum U AZ Laboratory isolate; assay: microbe, parasite or virus in culture; assay type: cell-based, Cryptosporidium parvum
# HEK293T = assay: 72H HEK293T Cytotoxicity; assay type: cell-based
# HCT-8 cells = assay: HCT-8 host cell count (Calibr); conditions: read-out: HCT-8 Cell Count CC50; host cells infected with Sterling oocysts
# C. hominis TU502 isolate = assay: Calibr high-content imaging Cryptosporidium panel; assay type: cell-based, Cryptosporidium hominis
# [4] = tested on: C. parvum Zambriski Laboratory isolate; assay: Calibr high-content imaging Cryptosporidium panel; assay type: cell-based, Cryptosporidium parvum; conditions: Calibr Crypto Panel 2
# [5] = tested on: C. parvum Bunch Grass Farms isolate; assay: Calibr high-content imaging Cryptosporidium panel; assay type: cell-based, Cryptosporidium parvum; conditions: Calibr Crypto Panel 2
# [6] = tested on: A-375, Hs294T, MEWO, and Colo678 carcinoma cell lines
# NLuc C. parvum = tested on: NLuc C. parvum; set-up: method as in PMID 30830766; conditions: cited from earlier work
# [7] = tested on: NLuc-expressing C. parvum; set-up: method as in PMID 30830766; conditions: 8 mg/kg QD x 5 PO, 20 days p.i.; cited from earlier work
# C. parvum = conditions: bovine, in vivo
# [8] = female, Balb/c, mouse, in vivo
# [9] = cited from earlier work
# [10] = tested on: micronuclei in interphase cells; assay: In vitro micronucleus (IVMN) test
# 5-HT2B = target: T1, 5-HT2B (Homo sapiens, UniProt P41595); assay: Cerep binding assay; conditions: agonist radioligand, mean, read-out: % inhibition of control specific binding
# T1 construct: Cerep (Eurofins, France)
# [11] = dog, in vivo
# T1 sequence (P41595 whole entry): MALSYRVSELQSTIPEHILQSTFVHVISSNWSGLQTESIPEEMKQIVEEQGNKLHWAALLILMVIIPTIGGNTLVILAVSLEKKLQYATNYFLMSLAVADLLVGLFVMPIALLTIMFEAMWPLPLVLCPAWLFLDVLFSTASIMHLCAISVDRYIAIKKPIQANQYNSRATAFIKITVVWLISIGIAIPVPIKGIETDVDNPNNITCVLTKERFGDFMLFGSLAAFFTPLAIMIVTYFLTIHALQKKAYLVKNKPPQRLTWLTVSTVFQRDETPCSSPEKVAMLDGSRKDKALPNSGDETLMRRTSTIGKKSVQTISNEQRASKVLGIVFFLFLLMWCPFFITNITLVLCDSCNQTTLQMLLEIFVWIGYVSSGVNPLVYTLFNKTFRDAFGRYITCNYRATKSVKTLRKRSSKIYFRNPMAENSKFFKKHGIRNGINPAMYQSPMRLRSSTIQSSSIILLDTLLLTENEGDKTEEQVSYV
structure (smiles),measurement,setting,value
CC1(C)Cn2nc(-c3ccc4cc(OC5CC5)ccc4c3)c(C(N)=O)c2NC1O (stereo not shown) [compound 1862],Brains concentration,[1],0.0641 µM
same,RLU Raw,"[2]; 8 mg/kg x 3 d, Day 6",1384352 RLU
same,RLU Raw,"[2]; 8 mg/kg x 3 d, Day 7",821824 RLU
same,RLU Raw,"[2]; 8 mg/kg x 3 d, Day 8",1485152 RLU
same,RLU Raw,"[2]; 8 mg/kg x 3 d, Day 9",162144 RLU
same,RLU Raw,"[2]; 8 mg/kg x 3 d, Day 10",41552 RLU
same,RLU Raw,"[2]; 8 mg/kg x 3 d, Day 13",6176 RLU
same,RLU Raw,"[2]; 8 mg/kg x 3 d, Day 15",4992 RLU
same,RLU Raw,"[2]; 8 mg/kg x 3 d, Day 17",608 RLU
same,RLU Raw,"[2]; 8 mg/kg x 3 d, Day 20",1296 RLU
same,RLU standardized by fecal weight (Normalized),"[2]; 8 mg/kg x 3 d, day 6 p.i.",226943 RLU
same,RLU standardized by fecal weight (Normalized),"[2]; 8 mg/kg x 3 d, day 7 p.i.",75397 RLU
same,RLU standardized by fecal weight (Normalized),"[2]; 8 mg/kg x 3 d, day 8 p.i.",146320 RLU
same,RLU standardized by fecal weight (Normalized),"[2]; 8 mg/kg x 3 d, day 9 p.i.",15516 RLU
same,RLU standardized by fecal weight (Normalized),"[2]; 8 mg/kg x 3 d, day 10 p.i.",4240 RLU
same,RLU standardized by fecal weight (Normalized),"[2]; 8 mg/kg x 3 d, day 13 p.i.",468 RLU
same,RLU standardized by fecal weight (Normalized),"[2]; 8 mg/kg x 3 d, day 15 p.i.",409 RLU
same,RLU standardized by fecal weight (Normalized),"[2]; 8 mg/kg x 3 d, day 17 p.i.",61 RLU
same,RLU standardized by fecal weight (Normalized),"[2]; 8 mg/kg x 3 d, day 20 p.i.",214 RLU
same,RLU Raw,"[2]; 15 mg/kg x 3 d, Day 6",1490624 RLU
same,RLU Raw,"[2]; 15 mg/kg x 3 d, Day 7",876560 RLU
same,RLU Raw,"[2]; 15 mg/kg x 3 d, Day 8",670544 RLU
same,RLU Raw,"[2]; 15 mg/kg x 3 d, Day 9",9856 RLU
same,RLU Raw,"[2]; 15 mg/kg x 3 d, Day 10",2928 RLU
same,RLU Raw,"[2]; 15 mg/kg x 3 d, Day 13",512 RLU
same,RLU Raw,"[2]; 15 mg/kg x 3 d, Day 15",400 RLU
same,RLU Raw,"[2]; 15 mg/kg x 3 d, Day 17",288 RLU
same,RLU Raw,"[2]; 15 mg/kg x 3 d, Day 20",192 RLU
same,RLU standardized by fecal weight (Normalized),"[2]; 15 mg/kg x 3 d, day 6 p.i.",200084 RLU
same,RLU standardized by fecal weight (Normalized),"[2]; 15 mg/kg x 3 d, day 7 p.i.",110259 RLU
same,RLU standardized by fecal weight (Normalized),"[2]; 15 mg/kg x 3 d, day 8 p.i.",111757 RLU
same,RLU standardized by fecal weight (Normalized),"[2]; 15 mg/kg x 3 d, day 9 p.i.",1398 RLU
same,RLU standardized by fecal weight (Normalized),"[2]; 15 mg/kg x 3 d, day 10 p.i.",284 RLU
same,RLU standardized by fecal weight (Normalized),"[2]; 15 mg/kg x 3 d, day 13 p.i.",37 RLU
same,RLU standardized by fecal weight (Normalized),"[2]; 15 mg/kg x 3 d, day 15 p.i.",29 RLU
same,RLU standardized by fecal weight (Normalized),"[2]; 15 mg/kg x 3 d, day 17 p.i.",32 RLU
same,RLU standardized by fecal weight (Normalized),"[2]; 15 mg/kg x 3 d, day 20 p.i.",66 RLU
same,RLU Raw,"[2]; 30 mg/kg x 3 d, Day 6",1093968 RLU
same,RLU Raw,"[2]; 30 mg/kg x 3 d, Day 7",650000 RLU
same,RLU Raw,"[2]; 30 mg/kg x 3 d, Day 8",37104 RLU
same,RLU Raw,"[2]; 30 mg/kg x 3 d, Day 9",1536 RLU
same,RLU Raw,"[2]; 30 mg/kg x 3 d, Day 10",336 RLU
same,RLU Raw,"[2]; 30 mg/kg x 3 d, Day 13",208 RLU
same,RLU Raw,"[2]; 30 mg/kg x 3 d, Day 15",240 RLU
same,RLU Raw,"[2]; 30 mg/kg x 3 d, Day 17",2640 RLU
same,RLU Raw,"[2]; 30 mg/kg x 3 d, Day 20",192 RLU
same,RLU standardized by fecal weight (Normalized),"[2]; 30 mg/kg x 3 d, day 6 p.i.",163279 RLU
same,RLU standardized by fecal weight (Normalized),"[2]; 30 mg/kg x 3 d, day 7 p.i.",191176 RLU
same,RLU standardized by fecal weight (Normalized),"[2]; 30 mg/kg x 3 d, day 8 p.i.",11969 RLU
same,RLU standardized by fecal weight (Normalized),"[2]; 30 mg/kg x 3 d, day 9 p.i.",290 RLU
same,RLU standardized by fecal weight (Normalized),"[2]; 30 mg/kg x 3 d, day 10 p.i.",51 RLU
same,RLU standardized by fecal weight (Normalized),"[2]; 30 mg/kg x 3 d, day 13 p.i.",29 RLU
same,RLU standardized by fecal weight (Normalized),"[2]; 30 mg/kg x 3 d, day 15 p.i.",21 RLU
same,RLU standardized by fecal weight (Normalized),"[2]; 30 mg/kg x 3 d, day 17 p.i.",290 RLU
same,RLU standardized by fecal weight (Normalized),"[2]; 30 mg/kg x 3 d, day 20 p.i.",23 RLU
CCOc1ccc2cc(-c3nn(CC4CCN(C)CC4)c4ncnc(N)c34)ccc2c1 [BKI-1294],EC50,"[3]; Calibr Crypto Panel 2, 2018-06-18, read-out: Sterling Lab C. parvum Spot Count EC50",0.468 µM
same,EC90,"[3]; Calibr Crypto Panel 2, read-out: Sterling Lab C. parvum Spot Count EC90",8.29 µM
same,CC50,HEK293T,22.2 µM
same,CC50,HCT-8 cells,> 25 µM
same,EC50,"C. hominis TU502 isolate; Calibr Crypto Panel 2, 2018-07-02, read-out: C. hominis Spot Count EC50",2.82 µM
same,EC90,"C. hominis TU502 isolate; Calibr Crypto Panel 2, read-out: C. hominis Spot Count EC90",14.8 µM
same,EC50,[4]; read-out: Wild C. parvum Spot Count EC50,0.337 µM
same,EC90,[4]; read-out: Wild C. parvum Spot Count EC90,27.3 µM
same,EC50,[5]; read-out: Bunch Grass Farm C. parvum Spot Count EC50,2.02 µM
same,EC90,[5]; read-out: Bunch Grass Farm C. parvum Spot Count EC90,5.44 µM
CC(=O)Nc1cccc(-n2c(=O)n(C3CC3)c(=O)c3c(Nc4ccc(I)cc4F)n(C)c(=O)c(C)c32)c1 [Trametinib],inhibitory concentration in MEK1 proliferation-dependent cell lines,[6],7 to 60 nM
CC(C)(CO)Cn1nc(-c2ccc3cc(OC4CC4)ccc3c2)c(C(N)=O)c1N [BKI-1708],EC50,NLuc C. parvum,0.4 µM
same,log reduction in oocyst shedding over untreated controls,[7],> 3 log
same,Clinical scores,C. parvum,10.5
same,"Weights, %∆",C. parvum,6.329% and 8.511% and 5.263%
same,"Weights, %∆, mean",C. parvum,6.701%
same,postnatal mortality (%),[8],0%
same,efficacy,[2]; 8 mg/kg QD x 3,failed to recapitulate efficacy
same,log reduction in oocyst shedding,"[2]; 15 mg/kg x 2 days, day 20 p.i.",2.1 log
same,log reduction vs peak infection levels of untreated control,"[2]; 60, 30 and 15 mg/kg QD x 3, up to 20 days p.i.",> 4 log
same,day p.i. oocyst shedding reached LoD,[2]; BKI-1708 15 mg/kg QD x 3 PO,≤ 13 days
same,day p.i. oocyst shedding reached LoD,[2]; BKI-1708 30 mg/kg QD x 3 PO,≤ 13 days
same,day p.i. oocyst shedding below LoD,[2]; BKI-1708 60 mg/kg QD x 3 PO,≤ 10 days
same,log reduction in oocyst shedding,"[2]; single 15 mg/kg dose, 13 days p.i.",1.4 log
same,log reduction in oocyst shedding,"[2]; single 15 mg/kg dose, 20 days p.i.",1.7 log
same,log reduction in oocyst shedding,"[2]; single 60 mg/kg dose, 13 days p.i.",3.5 log
same,maximum tolerated single dose,[9],400 mg/kg
same,IVMN test result,[10],no change in the frequency of micronucleated cells
same,inhibition at 10 µM,5-HT2B,24.3%
same,"plasma level without appreciable effect on MAP, HR, contractility, SVR, CO, QT, QRS, PR",[11],95 µM
